Patent US10653739B2, “Medicinal ambrosia maritima extracts” (priority 2015, dated 2020)

Experiments:
[1] = tested on: UM-UC-9 bladder cancer cell line; assay: MTS IC50, UM-UC-9 bladder cancer cell line; assay type: cell-based; conditions: 1000 cells/well
Description: (§1) MTS was used to evaluate IC50 (drug concentration causing 50% inhibition of the desired activity) for SLs on various bladder, prostate, breast, lung and pancreatic cancer cell lines.
(§2) The MTS test was then conducted to evaluate the different IC50 of multiple cell lines. Purification was performed to separate the organic extract of SLs into different components. Micromolar doses, instead of micrograms, as determined by the molecular weight of the different SLs, Parthenin, Ambrosin, Damsin, and Neoambrosin, were tested in vitro. Ideally, for drug treatments, micromolar weights between 10-15 are preferred.

[2] = tested on: UM-UC-15 bladder cancer cell line; assay: MTS IC50, UM-UC-15 bladder cancer cell line; assay type: cell-based; conditions: 1000 cells/well
Description: as §1, §2

[3] = tested on: prostate cancer cell line; assay: MTS IC50, prostate cancer cell line; assay type: cell-based; conditions: purified sub fractions of the organic extraction
Description: as §1
The concentration is in μmol. As expected, some of the sub fractions affected the cell line to a much greater extent to others.

[4] = tested on: MDA-MB-231 breast cancer cell line; assay: MTS IC50, MDA-MB-231 breast cancer cell line; assay type: cell-based; conditions: for IC50: Homo sapiens, MDA-MB-231, individual SLs, MTS
Description: as §1
Several TNBC cell lines were tested in vitro and were treated with serial concentrations of the extracted SLs from Ambrosia maritima to determine IC50.
(§3) The IC50 of the purified SLs, Parthenin, Ambrosin, Damsin, and Neoambrosin, were also tested for MDA-MB-231 cell line (FIG. 22), MDA-MB-468 (Basal Subtype Normal) cell line (FIG. 23), and BT-474 cell line (FIG. 24), an invasive ductal carcinoma cell line (luminal subtype B).
(§4) Similar tests were performed with the organic extract from Ambrosia hispida.

[5] = tested on: BT-474 breast cancer cell line; assay: MTS IC50, BT-474 breast cancer cell line; assay type: cell-based; conditions: Homo sapiens, individual SLs
Description: as §1, §3

[6] = tested on: MDA-MB-468 breast cancer cell line; assay: MTS IC50, MDA-MB-468 breast cancer cell line; assay type: cell-based; conditions: Homo sapiens, individual SLs
Description: as §1, §3

[7] = tested on: UM-UC-7 bladder cancer cell line; assay: MTS IC50, UM-UC-7 bladder cancer cell line; assay type: cell-based; conditions: 1000 cells/well
Description: as §1, §2

[8] = tested on: UM-UC-17 bladder cancer cell line; assay: MTS IC50, UM-UC-17 bladder cancer cell line; assay type: cell-based; conditions: 1000 cells/well
Description: as §1, §2

[9] = tested on: MDA-MB-231 breast cancer cells; assay: Orthotopic MDA-MB-231 breast cancer model; assay type: in vivo, mice; conditions: MDA-MB-231 triple negative cell line
Description: Additional in vivo experiments were conducted for three breast cancer cell lines that were orthotopically injected into mice. Orthotopic injection of breast cancer cells is a powerful model to study all aspects of cancer growth. One million cells of each MDA-MB-231, SUM-159 and MDA-MB-468 were injected into the mammary fat pad of mice to form tumors. Once tumors were established, the tumors were treated with the SL-containing organic extraction of Ambrosia maritima at a dose of 200 μM of total SLs/animal daily.
FIGS. 11A-B show the histopathology of the tumor area in the mice treated with the SLs extracted from Ambrosia maritima versus control animals for the SUM-159 and MDA-MB-231 cell lines.
Thus, these components can be purified individually from the SL organic fraction and then combined as a potential treatment.

[10] = tested on: BT-20 breast cancer cell line; assay: MTS IC50, BT-20 breast cancer cell line; assay type: cell-based; conditions: Ambrosin purified from Ambrosia hispida
Description: as §1, §4

[11] = tested on: UM-UC-9 (bladder) and BT-20 (breast) cancer cell line; assay: Bromouridine sequencing of nascent transcription; assay type: cell-based; conditions: 3.5 hours treatment
Description: A common method of monitoring RNA changes is by labeling new RNA with Bromouridine, then isolate the RNA to see where the new RNA was made. Bromouridine sequencing is well known in the art.
We used this method to monitor RNA in the UM-UC-9 (bladder) and BT-20 (breast) cancer cell line to detect the level of nascent transcription on the genome after treatment with SLs. Both cell lines were treated with the whole organic fraction at one time, or purified Ambrosin from the organic fraction at different doses for 3.5 hours. The RNA was then labeled with Bromouridine for half an hour and sequenced to detect the level of nascent transcription in the genome.

IC50 ([1]; MTS) | IC50 [2] | IC50 [3] | IC50 [4] | IC50 [5] | IC50 [6] | IC50 [7] | IC50 [8] | IC50 ([1]; UM-UC-9, MTS) | IC50 of purified Ambrosin compared with SL extract of Ambrosia hispida, MDA-MB-231 ([4]; Ambrosin purified from Ambrosia hispida) | IC50 of purified Ambrosin compared with SL extract of Ambrosia hispida, BT-20 [10] | Compound | level of expression of HER2 and p65 in xenografted animals [9] | nascent transcription of genes of apoptotic pathway, reactive oxygen species pathway [11] | nascent transcription of hallmark genes related to cancer progression and proliferation [11]
4.73 µM | 1.06 µM | 1.16 µM | 1.6 µM | 2.8 µM | 0.935 µM | 1.09 µM | 2.86 µM |  |  |  | C=C1C(=O)O[C@@H]2[C@H]1CC[C@H](C)[C@@H]1CCC(=O)[C@@]21C (single isomer, unassigned) [DAMSIN, Damsin] | significant improves |  | 
6.25 µM | 0.991 µM | 2.71 µM | 1.02 µM | 2.17 µM | 0.882 µM | 4.89 µM | 1.35 µM | < 10 µM | greater IC50 | greater IC50 | C=C1C(=O)O[C@@H]2[C@H]1CC[C@H](C)[C@@H]1C=CC(=O)[C@@]21C (single isomer, unassigned) [AMBROSIN, Ambrosin] | significant improves | upregulated | transcribing them at lower level than the control
 | 146 µM | 264 µM | 22.5 µM | 36.1 µM | 9.08 µM | 120 µM | 31.8 µM | 142 µM |  |  | C=C1C(=O)O[C@@H]2[C@H]1CC[C@H](C)C1=CCC(=O)[C@]12C (single isomer, unassigned) [NEOAMBROSIN, Neoambrosin] |  |  | 

Compound | IC50 ([1]; MTS) | IC50 [2] | IC50 [3] | IC50 [4] | IC50 [5] | IC50 [6] | IC50 [7] | IC50 [8] | IC50 ([1]; UM-UC-9, MTS) | IC50 of purified Ambrosin compared with SL extract of Ambrosia hispida, MDA-MB-231 ([4]; Ambrosin purified from Ambrosia hispida) | IC50 of purified Ambrosin compared with SL extract of Ambrosia hispida, BT-20 [10] | level of expression of HER2 and p65 in xenografted animals [9] | nascent transcription of genes of apoptotic pathway, reactive oxygen species pathway [11] | nascent transcription of hallmark genes related to cancer progression and proliferation [11]
C=C1C(=O)O[C@@H]2[C@H]1CC[C@H](C)[C@]1(O)C=CC(=O)[C@@]21C (single isomer, unassigned) [PARTHENIN, Parthenin] |  | 4.9 µM | 4.88 µM | 4.74 µM | 8.57 µM | 1.23 µM | 6.49 µM | 6.32 µM | 14.2 µM |  |  |  |  | 
